According to ChEMBL document CHEMBL1128760, “CCKB selective receptor ligands: novel 1,3,5-trisubstituted benzazepin-2-ones” (Bioorg Med Chem Lett, 1995):

Biological target: T1, Cholecystokinin receptor type A (Rattus norvegicus, UniProt P30551)
T1 sequence (P30551 whole entry): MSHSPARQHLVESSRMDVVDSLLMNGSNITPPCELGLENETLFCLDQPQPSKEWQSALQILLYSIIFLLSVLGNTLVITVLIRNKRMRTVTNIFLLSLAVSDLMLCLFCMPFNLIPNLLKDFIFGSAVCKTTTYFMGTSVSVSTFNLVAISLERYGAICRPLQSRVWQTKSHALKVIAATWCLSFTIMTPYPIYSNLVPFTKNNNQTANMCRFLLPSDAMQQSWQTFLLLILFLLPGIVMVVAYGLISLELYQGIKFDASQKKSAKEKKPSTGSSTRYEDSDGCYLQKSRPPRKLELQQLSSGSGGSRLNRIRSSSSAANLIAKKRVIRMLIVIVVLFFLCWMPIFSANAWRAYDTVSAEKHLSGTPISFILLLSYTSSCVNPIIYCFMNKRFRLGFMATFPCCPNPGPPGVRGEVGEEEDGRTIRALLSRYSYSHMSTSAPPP
Assay: Inhibitory activity against Cholecystokinin type A receptor in rat pancreas using [125 I ]- CCK-8 as radioligand.

IC50 [nM] | Compound
646 | Cc1cccc(NC(=O)N[C@@H]2C[C@@H](N3CCCCCC3)c3ccccc3N(C)C2=O)c1
121 | Cc1cccc(NC(=O)N[C@@H]2C[C@H](N3CCCCCC3)c3ccccc3N(C)C2=O)c1
